{"source": "patent US10688113B2", "about": "(priority 2015, dated 2020)", "key": {"[1]": {"system": "capsaicin-induced ocular pain (33 mM)", "assay": "Capsaicin-induced ocular pain, acute treatment (single instillation 15 min before capsaicin)", "assay_type": "in vivo, New Zealand white rabbits", "conditions": "rabbit, single instillation of 10 mM, 15 min before capsaicin 33 mM; compared with capsazepine 5 mM", "experimental": "In order to study the pharmacological activity of the present invention in the case of ocular pain, the compounds of formula (I) were tested using the model of capsaicin-induced ocular pain. In this model, previously used in the literature (Gonzalez et al. (1993) Invest. Ophthalmol. Vis. Sci., 34(12), 3329-3335), in adult rabbits, the number of lid-squeezing movements, the degree of palpebral opening, miotic response and conjunctival vasodilation evoked by a bilateral instillation of 30 μL of capsaicin (33 mM) were measured at different times after administration of the drug. To that end, the responses to this test in eyes pre-treated with various calcium antagonists (diltiazem, verapamil or nifedipine) were compared with those that had received only vehicle.\nThe procedure and the timing were as follows:\nEvaluation of corneal pain by observing conjunctival hyperaemia after pain induction (a single instillation of 1% capsaicin (33 mM) in the right eye) in albino rabbits. Pre-treatment with the compound to be tested, 15 min before capsaicin instillation."}, "[2]": {"system": "corneal mechanical sensitivity (allodynia)", "assay": "Corneal mechanical sensitivity (allodynia), Von Frey filaments, trephine-injured cornea plus capsaicin", "assay_type": "in vivo, male C57BL/6 mice", "conditions": "mice, 10 mM topical twice-daily for 5 days, capsaicin 100 μM, vs 1×PBS", "experimental": "(§1) During this test, de-epithelialization of the corneal epithelium of the left eye of the mouse is carried out using a 1.5 mm diameter trephine. This surgery is carried out under a surgical microscope. This procedure lasts at most 3 minutes per animal. The depth and surface area of corneal de-epithelialization are standardized and then evaluated by a slit-lamp examination. The advantage of this surgical tool is standardization of the injury. The 8-week-old male C57BL/6 mice thus treated receive a twice-daily treatment for 5 days of the compound of formula I or PBS before the application of capsaicin.\nAdditional pain is induced by capsaicin (100 μM). Corneal mechanical sensitivity (allodynia) was measured using Von Frey filaments, 5 days after treatment, on mice treated with compound 1 (10 mM), with compound 2 (10 mM) or, for the control group, with 1×PBS (n=5 animals per group). The results obtained are presented in FIG. 6 (y-axis: weight of the Von Frey filament in grams). The histogram on the left (black) represents the response of mice treated with PBS, the histogram in the middle represents the response of mice treated with compound 1 and the histogram on the right represents the response of mice treated with compound 2."}, "[3]": {"system": "LPS-induced bacterial keratitis", "assay": "LPS-induced inflammation model (corneal scratch, LPS 50 μg) followed by capsaicin instillation", "assay_type": "in vivo", "conditions": "mice, LPS 50 μg days 1 and 4, 10 mM twice-daily for 5 days, capsaicin 100 μM on day 5, vs PBS", "experimental": "Bacterial lipopolysaccharide (LPS, endotoxin) is a potent stimulator of inflammatory responses and contributes to microbial keratitis and to corneal ulcers (Khatri et al. 2002 Invest. Ophthal. Vis. Sci., 43 2278-2284).\nEffect of compound 2 in a model of LPS-induced inflammation (50 μg). A corneal epithelial injury (scratch) is made with a trephine (1.5 mm diameter) in mice, followed by topical treatment with LPS (50 μg, two administrations on days 1 and 4) then twice-daily chronic treatment for 5 days with 1×PBS (control group) or with compound 2 (10 mM) (n=6 animals per group), followed by capsaicin instillation (100 μM) on day 5. The results obtained are presented in FIG. 8 (y-axis: palpebral closure time in seconds). The histogram on the left represents the response of mice treated with PBS, while the histogram on the right represents the response of mice treated with compound 2."}, "[4]": {"system": "capsaicin-induced ocular pain (100 μM)", "assay": "Capsaicin test (100 μM) after chronic twice-daily treatment on trephine-injured cornea", "assay_type": "in vivo, male C57BL/6 mice", "conditions": "mice, trephine corneal injury, 10 mM topical twice-daily for 4 days, capsaicin 100 μM 15 min after last instillation; vs PBS", "experimental": "The compounds of formula I of the present invention were also tested, in 8-week-old male C57BL/6 mice (JANVIER LABS), using a capsaicin test (100 μM) after twice-daily treatment for 5 days of the compound of formula I on cornea injured beforehand (with a 1.5 mm diameter trephine).\nAnalgesic effect of compound 2 in the model of capsaicin-induced ocular pain (100 μM). A corneal epithelial injury was made on the right cornea of male C57BL/6 mice (JANVIER LABS) using a 1.5 mm diameter trephine. Once the animals were operated on, a twice-daily topical treatment, for 4 days, is carried out with 1×PBS (5 animals per group) or with 10 mM compound 2 (5 animals per group). On day 4, 15 minutes after the last instillation, 100 μM capsaicin is instilled and the behavioural analysis is performed. The results obtained corresponding to the trephine injury alone before capsaicin are shown in FIG. 5 (y-axis: palpebral closure time in seconds).\nas §1, with “The 8-week-old male C57BL/6 mice thus treated receive a twice-daily treatment for 5 days of the compound of formula I or PBS before the application of capsaicin.” left out"}, "[5]": {"system": "mechanical allodynia induced by 0.2% BAC", "assay": "Keratitis induced by chronic instillation of 0.2% benzalkonium chloride (BAC), Von Frey filaments", "assay_type": "in vivo, male C57BL/6 mice", "conditions": "mice, 0.2% BAC for 6 days then 10 mM twice-daily for 5 days; vs 1×PBS", "from_the_text": "Chronic instillation of 0.2% benzalkonium chloride induces chronic inflammation of the cornea with generation of ocular pain (Launay et al. (2016) Neurobiol. Dis., 88 16-28). This model was used as a model of chemical keratitis.\nStudy of corneal sensitivity in mice treated twice-daily with compound 2 for 5 days first treated with 0.2% BAC for 6 days. The corneal mechanical sensitivity of male C57BL/6 mice, treated with 0.2% BAC for 6 days, then twice-daily with compound 2 for 5 days, was evaluated at various times using Von Frey filaments, compared with a control group receiving twice-daily 1×PBS (n=10 animals per group). The use of Von Frey filaments (applied to the centre of the cornea of a conscious animal) is perfectly feasible for measuring corneal mechanical allodynia in mice. In the context of dry eye, the technique produces mechanical allodynia in the patient: the simple fact of closing the eyelid induces a painful sensation. Lastly, this behavioural test is most like the one used in human clinical practice (Cochet-Bonnet) to measure corneal mechanical sensitivity.\nThe results obtained are presented in FIG. 7 (y-axis: weight of the Von Frey filament in grams). The histogram on the left represents the response of mice treated with PBS, while the histogram on the right represents the response of mice treated with compound 2."}, "[6]": {"system": "contractile responses to capsaicin", "conditions": "morphine 5×100 μM; cited from earlier work"}, "[7]": {"system": "capsaicin-induced blinking", "conditions": "cited from earlier work"}, "[8]": {"system": "capsaicin-induced ocular pain", "conditions": "rabbits, 1 to 28 mM administered 15 minutes before application of capsaicin; cited from earlier work"}}}
{"smiles": "C[C@H](NC(=O)[C@H](Cc1ccc(-c2ccccc2)cc1)CP(=O)([O-])[C@H](C)N)C(=O)[O-].[Na+].[Na+]", "note": "[compound 1]", "values": [{"measurement": "analgesic effect on conjunctival hyperaemia following pain induction by capsaicin", "setting": "[1]", "value": "superior to the reference product, capsazepine"}, {"measurement": "analgesic effect on palpebral opening following pain induction by capsaicin", "setting": "[1]", "value": "superior to the reference product, capsazepine"}, {"measurement": "mechanical sensitivity measured with Von Frey filaments", "setting": "[2]", "value": "significant decrease"}]}
{"smiles": "CC(OC(=O)N[C@@H](C)P(=O)([O-])C[C@@H](Cc1ccc(-c2ccccc2)cc1)C(=O)N[C@@H](C)C(=O)[O-])OC(=O)C(C)C.[Na+].[Na+]", "note": "(stereo partly shown) [compound 2]", "values": [{"measurement": "analgesic effect on conjunctival hyperaemia following pain induction by capsaicin", "setting": "[1]", "value": "superior to the reference product, capsazepine"}, {"measurement": "analgesic effect on palpebral opening following pain induction by capsaicin", "setting": "[1]", "value": "superior to the reference product, capsazepine"}, {"measurement": "analgesic effect (cumulative palpebral closure time) in LPS-induced keratitis", "setting": "[3]", "value": "very significant analgesic effect (shorter cumulative palpebral closure time)"}, {"measurement": "analgesic effect (cumulative palpebral closure time) in the capsaicin test", "setting": "[4]", "value": "very significant analgesic effect (shorter cumulative palpebral closure time)"}, {"measurement": "mechanical sensitivity measured with Von Frey filaments", "setting": "[2]", "value": "significant decrease"}, {"measurement": "mechanical allodynia induced by 0.2% BAC (Von Frey filaments)", "setting": "[5]", "value": "significantly reduced (higher sensitivity threshold)"}]}
{"smiles": "CN1CC[C@]23c4c5ccc(O)c4O[C@H]2[C@@H](O)C=C[C@H]3[C@H]1C5", "note": "[morphine]", "values": [{"measurement": "contractile responses to capsaicin", "setting": "[6]", "value": "partially inhibited"}, {"measurement": "blinking, healthy non-inflamed rat cornea", "setting": "[7]; applied to healthy, non-inflamed rat cornea", "value": "no effect on blinking"}, {"measurement": "capsaicin-induced blinking", "setting": "[7]; rats, topical application of a drop, 5 μM", "value": "attenuates capsaicin-induced blinking in a concentration-dependent manner"}]}
{"smiles": "COc1ccc([C@@H]2Sc3ccccc3N(CCN(C)C)C(=O)[C@@H]2OC(C)=O)cc1", "note": "[diltiazem]", "values": [{"measurement": "capsaicin-induced scratching movements, conjunctival hyperaemia, eye closure and elevated aqueous protein concentration", "setting": "[8]", "value": "significantly decreased"}]}
